Data published in BindingDB's records for patent US11214574 (Prelude Therapeutics, Incorporated, 2022).

Biological target: Methylosome protein 50/Protein arginine N-methyltransferase 5 (Homo sapiens, UniProt O14744+Q9BQA1)
Experiment: Biochemical Assay
Experimental: Compounds were solubilized and 3-fold diluted in 100% DMSO. […] Standard reactions were performed in a total volume of 30 μl in assay buffer, with 300 nM histone H4 based AcH4-23 (Anaspec: AS-65002) as substrate. To this was added the PRMT5/MEP50 complex diluted to provide a final assay concentration of 2.5 nM and the compounds were allowed to preincubate for 20 minutes at 37° C. The reaction was initiated by adding S-[3H-methyl]-adenosyl-L-methionine (PerkinElmer: NET155001MC) to final concentration of 1 μM. Following a 30 minutes incubation at 37° C., the reaction was stopped by adding 25 μL of 8M Guanidine HCl. Prepare streptavidin YSI SPA beads (Perkinelmer: RPNQ0012) at 0.3 mg/mL in assay buffer. To each reaction, add 150 μL of SPA beads suspension, and incubated while shaking at room temperature for 30 minutes. The plate was centrifuged at 100×g for 30 second before reading in a scintillation counter. IC50 values were determined by fitting the data to the standard 4 parameters with Hill Slope using GraphPad Prism software.

Sequence of Methylosome protein 50/Protein arginine N-methyltransferase 5 (O14744 whole entry): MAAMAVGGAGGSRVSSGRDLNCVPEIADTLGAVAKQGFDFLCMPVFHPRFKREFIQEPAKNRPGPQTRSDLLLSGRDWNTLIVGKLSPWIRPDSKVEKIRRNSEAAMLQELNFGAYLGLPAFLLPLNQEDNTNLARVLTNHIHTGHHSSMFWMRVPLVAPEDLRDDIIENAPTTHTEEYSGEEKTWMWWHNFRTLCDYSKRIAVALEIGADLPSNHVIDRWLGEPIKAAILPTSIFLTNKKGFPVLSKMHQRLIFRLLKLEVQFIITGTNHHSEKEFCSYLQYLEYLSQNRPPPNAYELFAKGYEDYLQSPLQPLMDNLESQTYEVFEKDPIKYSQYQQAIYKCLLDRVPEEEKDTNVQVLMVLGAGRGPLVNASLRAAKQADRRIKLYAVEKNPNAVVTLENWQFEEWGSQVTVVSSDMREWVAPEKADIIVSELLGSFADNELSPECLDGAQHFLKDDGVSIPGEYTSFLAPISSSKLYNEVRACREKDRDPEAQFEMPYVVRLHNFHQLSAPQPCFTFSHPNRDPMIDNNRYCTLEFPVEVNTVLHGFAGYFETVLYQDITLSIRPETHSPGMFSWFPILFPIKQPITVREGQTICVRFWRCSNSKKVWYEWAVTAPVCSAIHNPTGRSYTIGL
Sequence of Methylosome protein 50/Protein arginine N-methyltransferase 5 (Q9BQA1 whole entry): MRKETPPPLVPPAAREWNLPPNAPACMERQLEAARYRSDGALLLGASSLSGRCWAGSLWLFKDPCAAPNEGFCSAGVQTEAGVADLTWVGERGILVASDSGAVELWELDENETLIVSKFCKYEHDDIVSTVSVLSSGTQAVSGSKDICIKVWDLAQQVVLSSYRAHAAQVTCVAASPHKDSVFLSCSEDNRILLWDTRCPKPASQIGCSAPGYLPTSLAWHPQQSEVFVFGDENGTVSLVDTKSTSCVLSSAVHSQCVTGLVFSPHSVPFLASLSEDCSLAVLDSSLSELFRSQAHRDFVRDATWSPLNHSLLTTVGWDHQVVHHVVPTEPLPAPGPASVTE

Nc1ncnc2c1ccn2[C@@H]1O[C@H]([C@H]2OC(=O)c3cc(Cl)ccc32)[C@@H](O)[C@H]1O [US11214574, Ex# 1B]
IC50: 270 nM
